# Publication PMC5486603, “Toward molecular imaging of the free fatty acid receptor 1” (Acta Diabetologica, 2017)
# Entries after “also recorded” stand apart in the source; their conditions may differ.
# Legend:
# [1] = parameters: method as in NCT01609582; conditions: oral dosing of 50 mg daily, individuals with Type 2 diabetes with cardiovascular risk factors, phase 3; ref NCT01609582; cited from earlier work
# [2] = target: mouse GPR40 receptor; parameters: method as in data on file, AstraZeneca; conditions: mouse GPR40 overexpressing HEK293 cells, IP-One Tb HTRF; ref data on file, AstraZeneca; cited from earlier work
# [3] = target: T1, FFAR1 (Rattus norvegicus, UniProt Q8K3T4); test: In vitro radioligand binding in INS-1 xenograft tissue homogenate; conditions: for off-target (non-displaceable) binding: 2 nM [3H]AZ1 or [3H]AZ2, 4 nM [3H]TAK-875, 10 µM unlabeled ligand for non-specific binding; for specific bound radiolabeled ligand (FFAR1 density): 2 nM radiolabeled ligand
# T1 construct: 50–100 mg INS-1 xenografts were homogenized using a Polytron tissue homogenizer; from tissue; host or cells: INS-1 (rat insulinoma) xenograft tumours grown subcutaneously in Balbc nu/nu mice, homogenate
# Description: Rat insulinoma cell line INS-1 xenografts, explanted from immunodeficient mice postmortem, were used as a model of beta cells. Briefly, approximately 2 million INS-1 cells were injected subcutaneously in the right flank of Balbc nu/nu mice. Tumor growth was monitored by palpation, and when tumor diameter was 10 mm, the animals were euthanized and the INS-1 tumor explanted.
# (§1) Isolated endocrine (75–95% islet purity) and exocrine tissues were homogenized in ice-cold 0.32 M sucrose by hand using a Dounce glass homogenizer to a final concentration of 6 mg/ml. 50–100 mg INS-1 xenografts were homogenized using a Polytron tissue homogenizer (Polytron® PT 3000, Kinematica AG, Littau-Luzern, Switzerland) in ice-cold 0.32 M sucrose at a concentration of 6 mg/ml and then by hand using a Dounce glass homogenizer. Protein concentration was determined using Bio-Rad Protein Assay (Bio-Rad Laboratories, Hercules, CA) with bovine serum albumin as standard. Aliquots of the homogenates were stored at −80 °C until used.
# (§2) One milligram of homogenized endocrine and exocrine tissue and 2 mg insulinoma tissue was incubated for 2 h at room temperature with 2 nM [^3H]AZ1 or 2 nM [^3H]AZ2 and PBS in a final incubation volume of 1 ml. Two milligram insulinoma tissue was incubated for 2 h at room temperature with 4 nM [^3H]TAK-875 and 50 mM TRIS (pH 7.4) in a final incubation volume of 1 ml. All three ligands were dissolved in ethanol. 10 µM of unlabeled AZ1 or TAK-875 was added for determination of non-specific binding. The samples were filtered using a Brandel M-48 cell harvester with Whatman GF/C filter (presoaked with PBS or 50 mM TRIS) and washed four times with 3 ml PBS or 50 mM TRIS (room temperature). Filters were put into scintillation vials, dried for 30 min before adding 10 ml Ultima Gold scintillation fluid (Perkin Elmer, Waltham, MA). The filters were shaken for 60 min and then counted in a β-counter (Packard Scintillator Tri-Carb 2100TR). The K d and B max values for [^3H]AZ1 binding were determined using concentrations of the tritiated ligand from 1 to 20 nM. All assay concentrations were replicated in triplicate, both total binding and non-specific binding.
# (§3) The specific binding for each concentration of radiolabeled ligand was calculated by subtracting the non-specific binding (average of three replicates) from the total binding (average of three replicates), and expressed as fmol or pmol/mg protein. The specific binding data were analyzed with curve-fitting software (GraphPad Prism version 5.04) to obtain K d and B max values.
# [4] = target: T2, FFAR1 (Homo sapiens, UniProt O14842); test: In vitro radioligand binding and saturation binding in human exocrine pancreatic tissue homogenate; parameters: Isolated endocrine (75–95% islet purity) and exocrine tissues were homogenized in ice-cold 0.32 M sucrose; from tissue; host or cells: human exocrine pancreatic tissue, homogenate; conditions: for receptor specific binding: human pancreatic exocrine tissue, 2 nM labeled ligand
# Description: (§4) Isolated pancreatic islets and exocrine tissue were obtained within the Nordic network for Clinical Islet Transplantation laboratory in Uppsala, Sweden. The use of human tissue was approved by the Uppsala Ethical Review Board (#2011/473, #Ups 02-577).
# as §1, §2, §3
# [5] = target: T2, FFAR1; test: In vitro radioligand binding and saturation binding in human islets of Langerhans homogenate; parameters: Isolated endocrine (75–95% islet purity) and exocrine tissues were homogenized in ice-cold 0.32 M sucrose; from tissue; host or cells: human isolated pancreatic islets (75–95% purity), homogenate; conditions: for islet-to-exocrine ratio: human islets vs human exocrine tissue; for FFAR1 density by specific binding: isolated human islets of Langerhans
# Description: as §4, §1, §2, §3
# [6] = human exocrine tissue, representative saturation binding experiment (Fig. 5b)
# [7] = human islets, representative saturation binding experiment (Fig. 5a)
# T1 sequence (Q8K3T4 whole entry): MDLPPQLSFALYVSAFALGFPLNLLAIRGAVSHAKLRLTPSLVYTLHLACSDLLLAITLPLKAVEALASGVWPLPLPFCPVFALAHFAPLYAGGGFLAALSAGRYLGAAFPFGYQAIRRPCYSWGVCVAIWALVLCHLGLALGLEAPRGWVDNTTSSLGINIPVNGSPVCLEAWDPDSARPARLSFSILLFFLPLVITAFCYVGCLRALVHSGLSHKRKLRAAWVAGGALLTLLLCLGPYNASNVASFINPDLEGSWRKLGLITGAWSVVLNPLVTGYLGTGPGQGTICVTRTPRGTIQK
# T2 sequence (O14842 whole entry): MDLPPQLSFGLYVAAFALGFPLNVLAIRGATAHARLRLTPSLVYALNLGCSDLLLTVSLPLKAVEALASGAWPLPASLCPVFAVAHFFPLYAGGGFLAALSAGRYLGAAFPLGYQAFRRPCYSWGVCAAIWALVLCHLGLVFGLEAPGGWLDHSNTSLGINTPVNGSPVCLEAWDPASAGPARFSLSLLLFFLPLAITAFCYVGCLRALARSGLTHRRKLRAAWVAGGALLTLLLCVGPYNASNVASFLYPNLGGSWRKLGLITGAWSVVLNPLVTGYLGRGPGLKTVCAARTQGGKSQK
smiles,measurement,setting,value
"Cc1cc(OCCCS(C)(=O)=O)cc(C)c1-c1cccc(COc2ccc3c(c2)OC[C@H]3CC(=O)O)c1 [TAK-875, fasiglifam]",side effects,[1],suspected hepatic toxic side effects
same,EC50,[2],> 37500 nM
[3H]c1cc([3H])c(OCc2nc(-n3cc(C)cn3)nc(N3CCOCC3)c2[3H])cc1F [[^3H]AZ1],off-target (non-displaceable) binding,[3],decreased; also recorded: least
same,specific bound radiolabeled ligand (FFAR1 density),[3],132 fmol/mg protein
same,specific binding,[3]; incubation dose 2 nM,approximately 50%
same,Bmax,[4]; [6],15.8 pmol/mg protein
same,Kd,[4]; [6],26.4 nM
same,Kd,"[4]; human exocrine tissue, saturation binding 1 to 20 nM, n = 5, mean ± SEM",19.7 ± 8.4 nM
same,B max,"[4]; human exocrine tissue, saturation binding, n = 5, mean ± SEM",13.6 ± 2.5 pmol/mg protein
same,receptor specific binding,[4],below 1000 fmol/mg protein
same,higher FFAR1 binding in human islets compared to human exocrine tissue,[5]; 2 nM labeled ligand,30%
same,non-specific binding in different pancreatic compartments,[5]; human islets vs exocrine tissue,little difference
same,islet-to-exocrine ratio,[5]; 2 nM labeled ligand,1.3
same,Bmax,[5]; [7],6.3 pmol/mg protein
same,Kd,[5]; [7],15.8 nM
same,Kd,"[5]; human islets, saturation binding 1 to 20 nM, n = 3, mean ± SEM",10.6 ± 1.5 nM
same,B max,"[5]; human islets, saturation binding, n = 3, mean ± SEM",7.0 ± 2.0 pmol/mg protein
same,FFAR1 density by specific binding,[5]; 2 nM labeled ligand,approximately 1150 fmol/mg protein
[3H]c1cc([3H])c(OCc2nc(-n3cc(C)cn3)nc(N3CCOCC3)c2[3H])cc1Cl [[^3H]AZ2],off-target (non-displaceable) binding,[3],decreased
same,specific bound radiolabeled ligand (FFAR1 density),[3],177 fmol/mg protein
same,receptor specific binding,[4],below 1000 fmol/mg protein
same,islet-to-exocrine ratio,[5]; 2 nM labeled ligand,1.65
same,FFAR1 density by specific binding,[5]; 2 nM labeled ligand,approximately 1600 fmol/mg protein
"[3H]c1cc2c(c([3H])c1OCc1cccc(-c3c(C)cc(OCCCS(C)(=O)=O)c([3H])c3C)c1)OC[C@H]2CC(=O)O [[^3H]TAK-875, reference compound]",off-target (non-displaceable) binding,[3],high non-specific off-target binding; also recorded: most off-target binding
same,measurement of FFAR1 density,[3]; 4 nM [3H]TAK-875,severely underestimated
